US20090286785A1, “Pyrimidine Derivatives” (Bayer Pharmaceuticals Corporation, priority 2005, published 2009)
pIC50: −log10 of the molar value. Where two headings read alike, the source gives them in different places.

System: HCT116 cells
Assay: HCT116 cytotoxic activity assay (Alamar Blue, 72 h)
Conditions: Homo sapiens, HCT-116, 72 h
[1] = read-out: IC50 in the HCT116 cytotoxic activity assay

Method: Human tumor cells, e.g., HCT116 cells, are seeded in a 96-well plate at 3.0×10^3 cells/well and grown in 100 μl of RPMI complete media (Invitrogen Corporation, Grand Island, N.Y.) containing 10% fetal bovine serum (Hyclone, Logan, Utah) and 10 mM HEPES and at 37° C. for 16 h in an incubator with 5% CO2. To each well, 50 μl of additional growth media containing 20 μM to 60 nM concentrations of compound with 0.2% DMSO is added. Cells are grown for another 72 h at 37° C. 20 μl of Alamar Blue (Trek Diagnostic Systems, Inc., Cleveland, Ohio) reagent is added to each well and incubated for 4 h at 37° C. Plates are read in a SpectraMax Gemini (Molecular Devices, CA) with 544 nm excitation and 590 nm emission wavelength. IC50 values are determined by linear regression analysis of log drug concentration versus percent inhibition.

Row | Structure (SMILES) | pIC50 [1] | pIC50 (read-out: IC50 in the HCT116 cytotoxic activity assay (upper bound of bin))
1 | Nc1nc(Nc2ccc(Oc3ccnc(C(F)(F)F)c3)cc2)cc(-c2ccc3[nH]ccc3c2)n1 [Example 12, 6-(1H-indol-5-yl)-N^4-(4-{[2-(trifluoromethyl)pyridin-4-yl]oxy}phenyl)pyrimidine-2,4-diamine] | ≥ 6.30 | –
2 | Nc1nc(Nc2ccc(Oc3ccnc(C(F)(F)F)c3)cc2)cc(-c2ccc3[nH]cc(CN4CCOCC4)c3c2)n1 [Example 15, 6-[3-(morpholin-4-ylmethyl)-1H-indol-5-yl]-N^4-(4-{[2-(trifluoromethyl)pyridin-4-yl]oxy}phenyl)pyrimidine-2,4-diamine] | < 6.30 | ≥ 5.30
